Measurements: ChEMBL document CHEMBL1201862, “PubChem BioAssay data set” (2004)
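All cell lines were grown in 96-well plates and treated with compound for 48 hours. Abbreviation: GI50, concentration required for 50% inhibition of growth.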 Activity calls are given as the source filed them. Cut-off read from the data, not from the text of the source: active = GI50 up to about 1.1 µM and inactive = higher.

Columns and labels:
Assay in all cases: NCI-60 cell line screen, 48 h
COLO 205 = tested on: COLO 205
M19-MEL = tested on: M19-MEL
HT-29 = tested on: HT-29
SK-MEL-2 = tested on: SK-MEL-2
HOP-62 = tested on: HOP-62
NCI-H226 = tested on: NCI-H226
NCI-H23 = tested on: NCI-H23
SF-539 = tested on: SF-539
DMS-273 = tested on: DMS-273
OVCAR-3 = tested on: OVCAR-3
LOX IMVI = tested on: LOX IMVI
M14 = tested on: M14
U-251 = tested on: U-251
KM-20L2 = tested on: KM-20L2
SK-MEL-5 = tested on: SK-MEL-5
A549 = tested on: A549
HL-60 = tested on: HL-60
ACHN = tested on: ACHN
K562 = tested on: K562
EKVX = tested on: EKVX
HCT-15 = tested on: HCT-15
SF-268 = tested on: SF-268
SW-620 = tested on: SW-620
HCC 2998 = tested on: HCC 2998
HCT-116 = tested on: HCT-116
XF498 = tested on: XF498
SK-MEL-28 = tested on: SK-MEL-28
NCI-H460 = tested on: NCI-H460
MOLT-4 = tested on: MOLT-4
TK-10 = tested on: TK-10
CCRF-CEM = tested on: CCRF-CEM
HOP-18 = tested on: HOP-18
Malme-3M = tested on: Malme-3M
SK-OV-3 = tested on: SK-OV-3
KM12 = tested on: KM12
RPMI-8226 = tested on: RPMI-8226
NCI-H522 = tested on: NCI-H522
OVCAR-5 = tested on: OVCAR-5
DMS-114 = tested on: DMS-114
OVCAR-8 = tested on: OVCAR-8
SNB-19 = tested on: SNB-19
A498 = tested on: A498
786-0 = tested on: 786-0
LXFL 529 = tested on: LXFL 529
SN12C = tested on: SN12C
SF-295 = tested on: SF-295
IGROV-1 = tested on: IGROV-1
OVCAR-4 = tested on: OVCAR-4
UACC-62 = tested on: UACC-62
DLD-1 = tested on: DLD-1
HOP-92 = tested on: HOP-92
SNB-75 = tested on: SNB-75
CAKI-1 = tested on: CAKI-1
SR = tested on: SR
RXF 393 = tested on: RXF 393
UO-31 = tested on: UO-31
UACC-257 = tested on: UACC-257
SNB-78 = tested on: SNB-78

O=C(O)Cc1cc(=O)oc2cc(O)c(Cl)cc12
GI50 (COLO 205): > 100 µM (inactive)
GI50 (M19-MEL): > 100 µM (inactive)
GI50 (HT-29): > 100 µM (inactive)
GI50 (SK-MEL-2): > 100 µM (inactive)
GI50 (HOP-62): > 100 µM (inactive)
GI50 (NCI-H226): > 100 µM (inactive)
GI50 (NCI-H23): > 100 µM (inactive)
GI50 (SF-539): > 100 µM (inactive)
GI50 (DMS-273): > 100 µM (inactive)
GI50 (OVCAR-3): > 100 µM (inactive)
GI50 (LOX IMVI): > 100 µM (inactive)
GI50 (M14): > 100 µM (inactive)
GI50 (U-251): > 100 µM (inactive)
GI50 (KM-20L2): > 100 µM (inactive)
GI50 (SK-MEL-5): > 100 µM (inactive)
GI50 (A549): > 100 µM (inactive)
GI50 (HL-60): > 100 µM (inactive)
GI50 (ACHN): > 100 µM (inactive)
GI50 (K562): > 100 µM (inactive)
GI50 (EKVX): > 100 µM (inactive)
GI50 (HCT-15): > 100 µM
GI50 (SF-268): > 100 µM (inactive)
GI50 (SW-620): > 100 µM (inactive)
GI50 (HCC 2998): > 100 µM (inactive)
GI50 (HCT-116): > 100 µM (inactive)
GI50 (XF498): > 100 µM (inactive)
GI50 (SK-MEL-28): > 100 µM (inactive)
GI50 (NCI-H460): > 100 µM (inactive)
GI50 (MOLT-4): > 100 µM (inactive)
GI50 (TK-10): > 100 µM (inactive)
GI50 (CCRF-CEM): > 100 µM (inactive)
GI50 (HOP-18): > 100 µM (inactive)
GI50 (Malme-3M): > 100 µM (inactive)
GI50 (SK-OV-3): > 100 µM (inactive)
GI50 (KM12): > 100 µM (inactive)
GI50 (RPMI-8226): > 100 µM (inactive)
GI50 (NCI-H522): > 100 µM (inactive)
GI50 (OVCAR-5): > 100 µM (inactive)
GI50 (DMS-114): > 100 µM (inactive)
GI50 (OVCAR-8): > 100 µM (inactive)
GI50 (SNB-19): > 100 µM (inactive)
GI50 (A498): > 100 µM (inactive)
GI50 (786-0): > 100 µM (inactive)
GI50 (LXFL 529): > 100 µM (inactive)
GI50 (SN12C): > 100 µM (inactive)
GI50 (SF-295): > 100 µM (inactive)
GI50 (IGROV-1): > 100 µM (inactive)
GI50 (OVCAR-4): > 100 µM (inactive)
GI50 (UACC-62): > 100 µM (inactive)
GI50 (DLD-1): > 100 µM (inactive)
GI50 (HOP-92): > 100 µM (inactive)
GI50 (SNB-75): 28.6 µM (inactive)
GI50 (CAKI-1): > 100 µM (inactive)

O=C(/C=C(\O)C(=O)O)/C=C(\O)c1ccccc1Cl
GI50 (COLO 205): > 100 µM (inactive)
GI50 (HT-29): > 100 µM (inactive)
GI50 (SK-MEL-2): > 100 µM (inactive)
GI50 (HOP-62): > 100 µM (inactive)
GI50 (NCI-H226): > 100 µM (inactive)
GI50 (NCI-H23): > 100 µM (inactive)
GI50 (SF-539): > 100 µM (inactive)
GI50 (SR): > 100 µM (inactive)
GI50 (DMS-273): > 100 µM (inactive)
GI50 (OVCAR-3): > 100 µM (inactive)
GI50 (LOX IMVI): > 100 µM (inactive)
GI50 (M14): > 100 µM (inactive)
GI50 (U-251): > 100 µM (inactive)
GI50 (KM-20L2): > 100 µM (inactive)
GI50 (SK-MEL-5): > 100 µM (inactive)
GI50 (A549): > 100 µM (inactive)
GI50 (HL-60): > 100 µM (inactive)
GI50 (ACHN): > 100 µM (inactive)
GI50 (K562): > 100 µM (inactive)
GI50 (EKVX): > 100 µM (inactive)
GI50 (HCT-15): > 100 µM
GI50 (SF-268): > 100 µM (inactive)
GI50 (SW-620): > 100 µM (inactive)
GI50 (HCC 2998): > 100 µM (inactive)
GI50 (HCT-116): > 100 µM (inactive)
GI50 (XF498): > 100 µM (inactive)
GI50 (SK-MEL-28): > 100 µM (inactive)
GI50 (RXF 393): > 100 µM (inactive)
GI50 (NCI-H460): > 100 µM (inactive)
GI50 (MOLT-4): > 100 µM (inactive)
GI50 (TK-10): > 100 µM (inactive)
GI50 (CCRF-CEM): > 100 µM (inactive)
GI50 (HOP-18): > 100 µM (inactive)
GI50 (Malme-3M): > 100 µM (inactive)
GI50 (SK-OV-3): > 100 µM (inactive)
GI50 (KM12): > 100 µM (inactive)
GI50 (UO-31): > 100 µM (inactive)
GI50 (RPMI-8226): > 100 µM (inactive)
GI50 (NCI-H522): > 100 µM (inactive)
GI50 (OVCAR-5): > 100 µM (inactive)
GI50 (DMS-114): > 100 µM (inactive)
GI50 (OVCAR-8): > 100 µM (inactive)
GI50 (SNB-19): > 100 µM (inactive)
GI50 (A498): > 100 µM (inactive)
GI50 (786-0): > 100 µM (inactive)
GI50 (LXFL 529): > 100 µM (inactive)
GI50 (SN12C): > 100 µM (inactive)
GI50 (SF-295): > 100 µM (inactive)
GI50 (IGROV-1): > 100 µM (inactive)
GI50 (OVCAR-4): > 100 µM (inactive)
GI50 (UACC-62): > 100 µM (inactive)
GI50 (UACC-257): > 100 µM (inactive)
GI50 (DLD-1): > 100 µM (inactive)
GI50 (HOP-92): > 100 µM (inactive)
GI50 (SNB-75): > 79.8 µM (inactive)
GI50 (CAKI-1): > 100 µM (inactive)

CC(=O)O[C@H]1C(=O)[C@@]2(C)C(C(OC(=O)c3ccccc3)[C@]3(O)CC(OC(=O)C(O)C(NC(=O)c4ccc(C(F)(F)F)cc4)c4ccccc4)C(C)=C1C3(C)C)[C@]1(OC(C)=O)CO[C@@H]1C[C@@H]2O (stereo partly drawn)
GI50 (COLO 205): 0.0706 µM (active)
GI50 (M19-MEL): 0.0824 µM (active)
GI50 (HT-29): 0.0565 µM (active)
GI50 (SK-MEL-2): 0.0914 µM (active)
GI50 (HOP-62): 0.0989 µM (active)
GI50 (NCI-H226): 0.0977 µM (active)
GI50 (NCI-H23): 0.136 µM (active)
GI50 (SF-539): 0.166 µM (active)
GI50 (SR): 0.0264 µM (active)
GI50 (DMS-273): 0.0431 µM (active)
GI50 (OVCAR-3): 0.0757 µM (active)
GI50 (LOX IMVI): 0.156 µM (active)
GI50 (M14): 0.0682 µM (active)
GI50 (U-251): 0.156 µM (active)
GI50 (KM-20L2): 0.0767 µM (active)
GI50 (SK-MEL-5): 0.0942 µM (active)
GI50 (A549): 0.218 µM (active)
GI50 (HL-60): 0.0951 µM (active)
GI50 (ACHN): 1.9 µM (inactive)
GI50 (K562): 0.108 µM (active)
GI50 (HCT-15): 4.97 µM
GI50 (SF-268): 0.157 µM (active)
GI50 (SW-620): 0.0552 µM (active)
GI50 (HCC 2998): 0.101 µM (active)
GI50 (HCT-116): 0.05 µM (active)
GI50 (XF498): 0.681 µM (active)
GI50 (SK-MEL-28): 0.128 µM (active)
GI50 (NCI-H460): 0.103 µM (active)
GI50 (MOLT-4): 0.0324 µM (active)
GI50 (TK-10): 1.95 µM (inactive)
GI50 (CCRF-CEM): 0.175 µM (active)
GI50 (HOP-18): 0.836 µM (active)
GI50 (Malme-3M): 0.109 µM (active)
GI50 (SNB-78): 0.453 µM (active)
GI50 (SK-OV-3): 0.129 µM (active)
GI50 (KM12): 0.0611 µM (active)
GI50 (RPMI-8226): 0.0628 µM (active)
GI50 (NCI-H522): 0.0755 µM (active)
GI50 (OVCAR-5): 0.158 µM (active)
GI50 (DMS-114): 0.0226 µM (active)
GI50 (OVCAR-8): 0.161 µM (active)
GI50 (SNB-19): 0.861 µM (active)
GI50 (A498): 1.19 µM (inactive)
GI50 (786-0): 0.64 µM (active)
GI50 (SN12C): 0.159 µM (active)
GI50 (SF-295): 0.239 µM (active)
GI50 (IGROV-1): 0.183 µM (active)
GI50 (OVCAR-4): 8.77 µM (inactive)
GI50 (UACC-62): 0.0723 µM (active)
GI50 (UACC-257): 0.236 µM (active)
GI50 (DLD-1): 0.231 µM (active)
GI50 (HOP-92): 2.13 µM (inactive)
GI50 (SNB-75): 0.00375 µM (active)
GI50 (CAKI-1): 0.076 µM (active)
